Tests used:
[1] = system: DA1 receptor; assay: Goldberg in situ renal arterial preparation (renal DA1 assay), intra-arterial injection; assay type: in vivo, dog; conditions: optimal response of test compound divided by optimal response of dopamine
Procedure: (§1) The compounds were subsequently tested following intra-arterial administration in an in situ renal and femoral arterial preparation in the dog, as developed by L.I. Goldberg, to test for DA1 and DA2 dopamine activity, respectively. Details of the methodology are provided in the European J. Pharmacol. 89 :137, 1983, as well as in Hypertension 6 :1-25, 1984.
as §1, with “compounds of this invention” for “compounds”, “were” for “were subsequently”, “Pharmacol. ,” for “Pharmacol.”, “Hypertension ,” for “Hypertension”, “1984. J. L. McNay, L. I. Goldberg JPET 151 :23-31, 1966.” for “1984.”
(§2) The compounds were injected directly into the renal or femoral artery for analysis of DA, or DA2 activity, respectively. […] The compounds were tested for relative activity in comparison to the standard DA, agonist, dopamine or the standard DA2 agonist, DPDA. Specific DA, or DA2 activity of the tested compound was verified by Sch 23390 or domperidone blockade.
(§3) Adult mongrel dogs of either sex (12-20 kg) were anesthetized with pentobarbital sodium (33 mg/kg, i.v.). The animals were intubated and ventilated with room air using a Harvard respirator.
as §1, with “compounds of this invention” for “compounds”, “were” for “were subsequently”, “Pharmacol. ,” for “Pharmacol.”, “Hypertension ,” for “Hypertension”, “1984. J. L. McNay, L. I. Goldberg JPET 151 :23-31, 1966” for “1984.”
as §2, with “of DA1” for “of DA,”, “standard DA1” for “standard DA,”
The abdominal aorta was catheterized with a Millar micro-tip (size: 5F) transducer via the right femoral artery for blood pressure monitoring. The right femoral vein was cannulated with PE-160 tubing for iv saline infusion, as well as supplemental pentobarbital administration. The left renal artery was isolated through a lateral abdominal incision. An electromagnetic flowprobe of the appropriate size (8-11 mm circ.) was placed around the artery and connected to a Carolina Medical electromagnetic flowmeter. Surface ECG leads were placed subcutaneously on the chest and limbs to monitor heart rate. A 25 gauge 3/4" needle bent 90°, 4 mm from the tip, was placed in the renal artery proximal to the probe and connected to an infusion pump delivering saline at a constant rate of 1 ml/min. Following a saline and 1µg norepinephrine (NE) challenge, both given in an injection volume of 0.2 ml, the animal was treated with a phenoxybenzamine, 0.5 mg/kg/min i.a., infusion for a duration of 10-20 minutes as necessary to achieve a complete blockade of the NE challenge. Blood pressure was maintained by supplemental saline infusion (10-20 ml/kg, iv). Bradykinin, a standard for nonspecific vasodilation, was given at 0.60 nmole doses, in 0.2 ml saline, i.a., prior to generating a dose response curve for dopamine in which 4-fold increasing doses, ranging from 3 to 48 nmoles, were injected i.a. in 0.2 ml of saline (i.a. bolus). Test compounds were injected similarly in 4-fold increasing doses up to a maximum of 3000 nmoles. Compounds were then repeated at their optimal dose following Sch 23390 pretreatment (0.05 - 0.10 mg/kg, iv).
Efficacy ratios were determined by division of the optimal response of the test compound by the optimal response of the standard agent.

[2] = system: DA2 receptor; assay: Goldberg in situ femoral arterial preparation (DA2 assay), intra-arterial injection; assay type: in vivo, dog; conditions: optimal response of test compound divided by optimal response of DPDA
Procedure: as §1
as §1, with “compounds of this invention” for “compounds”, “were” for “were subsequently”, “Pharmacol. ,” for “Pharmacol.”, “Hypertension ,” for “Hypertension”, “1984. J. L. McNay, L. I. Goldberg JPET 151 :23-31, 1966.” for “1984.”
as §2, §3
as §1, with “compounds of this invention” for “compounds”, “were” for “were subsequently”, “Pharmacol. ,” for “Pharmacol.”, “Hypertension ,” for “Hypertension”, “1984. J. L. McNay, L. I. Goldberg JPET 151 :23-31, 1966” for “1984.”
as §2, with “of DA1” for “of DA,”, “standard DA1” for “standard DA,”
The thoracic aorta was catheterized with a Millar micro-tip (size 5F) transducer via the right carotid artery for blood pressure monitoring. The right external jugular vein was cannulated with PE-160 tubing for supplemental pentobarbital administration. The left femoral artery was isolated and an electromagnetic flowprobe of the appropriate size (8-11 mm circ.) was placed around the artery and connected to a Caroline Medical electromagnetic flowmeter. Surface ECG leads were placed subcutaneously on the chest and limbs to monitor heart rate. A 25 gauge 3/4" needle bent 90` , 4 mm from the tip, was placed in the femoral artery proximal to the probe and connected to an infusion pump delivering saline at a constant rate of 1 ml/min. Following a saline and bradykinin challenge (0.02 to 0.04 nmoles, in 0.2 ml saline, i.a.), a dose response curve for DPDA was generated by injecting 4-fold increasing doses i.a. ranging from 3 to 48 nmoles in 0.2 ml saline. Test compounds were injected similarly in 4-fold increasing doses up to 3000 nmoles. Compounds were then repeated at their optimal dose following domperidone pretreatment (10-40 Ilg/kg, iv).
Efficacy ratios were determined by division of the optimal response of the test compound by the optimal response of the standard agent. The optimal dose of compound was defined as that which produced a maximum increase in blood flow before causing a change in systemic blood pressure. ED50 values were derived by regression analysis from individually generated dose response curves. Potency ratios were the quotients calculated from the division of the standard agent EDso by the ED50 of the test compound. […] If the inhibition of the test compound was similar to that of dopamine or DPDA, the compound was considered to be a DA, or DA2 agonist, respectively.

Structure (SMILES)	Relative Efficacy to DA1 Standard [1]	Relative Efficacy to DA2 Standard [2]
Cl.NCCc1ccc(O)c(O)c1 [Dopamine, 4-(2-aminoethyl)-1,2-Benzenediol hydrochloride]	1.00	
CCCN(CCC)CCc1ccc(O)c(O)c1 [DPDA, di-propyl dopamine, reference compound]		1.00
